Measurements published in ChEMBL document CHEMBL1697781, “Assessment of the health effects of chemicals in humans: II. Construction of an adverse effects database for QSAR modeling” (Curr Drug Discov Technol, 2004).

How the values were obtained:
Settings in all cases: human; call rule not given here
Hepatotoxicity [1] = assay: FDA HLAED, liver enzyme composite activity
Hepatotoxicity [2] = assay: FDA HLAED, alkaline phosphatase increase
Hepatotoxicity [3] = assay: FDA HLAED, serum glutamic oxaloacetic transaminase (SGOT) increase
Hepatotoxicity [4] = assay: FDA HLAED, serum glutamic pyruvic transaminase (SGPT) increase
Hepatotoxicity [5] = assay: FDA HLAED, lactate dehydrogenase (LDH) increase
Hepatotoxicity [6] = assay: FDA HLAED, gamma-glutamyl transferase (GGT) increase
Throughout, for GGT Increase - Index Value: reference of the scale not given here.
Throughout, for LDH Increase - Index Value: reference of the scale not given here.

SMILES	Composite Activity - Active (Hepatotoxicity [1])	Composite Activity - Marginal (Hepatotoxicity [1])	Composite Activity - Score (Hepatotoxicity [1])	Alkaline Phosphatase Increase - Activity Score (Hepatotoxicity [2])	Alkaline Phosphatase Increase - Index Value (Hepatotoxicity [2])	Alkaline Phosphatase Increase - Number of Reports (Hepatotoxicity [2])	SGOT Increase - Activity Score (Hepatotoxicity [3])	SGOT Increase - Index Value (Hepatotoxicity [3])	SGOT Increase - Number of Reports (Hepatotoxicity [3])	SGPT Increase - Activity Score (Hepatotoxicity [4])	SGPT Increase - Index Value (Hepatotoxicity [4])	SGPT Increase - Number of Reports (Hepatotoxicity [4])	LDH Increase - Activity Score (Hepatotoxicity [5])	LDH Increase - Index Value (Hepatotoxicity [5])	LDH Increase - Number of Reports (Hepatotoxicity [5])	GGT Increase - Activity Score (Hepatotoxicity [6])	GGT Increase - Index Value (Hepatotoxicity [6])	GGT Increase - Number of Reports (Hepatotoxicity [6])
CO/N=C(\C(=O)N[C@@H]1C(=O)N2C(C(=O)OC(C)OC(C)=O)=C(COC(N)=O)CS[C@H]12)c1ccco1 (stereo partly specified) [CEFUROXIME AXETIL]	0	0	Inactive	Inactive	0	< 4	Inactive	0	< 4	Inactive	0	< 4	Inactive	0	< 4	Inactive	0	< 4
Nc1cc(-c2ccncc2)c[nH]c1=O [INAMRINONE]	0	0	Inactive	Inactive	2.2	< 4	Inactive	6.6	< 4	Inactive	4.4	< 4	Inactive	2.2	< 4	Inactive	0	< 4
CN(C/C=C/C#CC(C)(C)C)Cc1cccc2ccccc12 [TERBINAFINE]	0	1	Inactive	Inactive	1.1	>= 4	Marginally Active	3.1	>= 4	Inactive	2.8	>= 4	Inactive	1.1	>= 4	Inactive	2.6	>= 4
CCCN1CCCC[C@H]1C(=O)Nc1c(C)cccc1C [ROPIVACAINE]	0	0	Inactive	Inactive	0	< 4	Inactive	0	< 4	Inactive	0	< 4	Inactive	0	< 4	Inactive	0	< 4
CCN(CC)CCNC(=O)c1cc(Cl)c(N)cc1OC [METOCLOPRAMIDE]	0	0	Inactive	Inactive	No Shipping Units	< 4	Inactive	0	< 4	Inactive	0	< 4	Inactive	0	< 4	Inactive	0	< 4
Nc1ncnc2c1ncn2[C@@H]1O[C@H](CO)[C@@H](O)[C@H]1O [ADENOSINE]	0	0	Inactive	Inactive	0	< 4	Inactive	0	< 4	Inactive	0	< 4	Inactive	0	< 4	Inactive	0	< 4
C/C(=C\C(=O)OCCCCCCCCC(=O)O)C[C@@H]1OC[C@H](C[C@@H]2O[C@H]2[C@@H](C)[C@H](C)O)[C@@H](O)[C@H]1O [MUPIROCIN]	0	0	Inactive	Inactive	0	< 4	Inactive	0	< 4	Inactive	0	< 4	Inactive	0	< 4	Inactive	0	< 4
